From ChEMBL document CHEMBL1140672, “Design, synthesis, and evaluation of isoindolinone-hydroxamic acid derivatives as histone deacetylase (HDAC) inhibitors” (Bioorg Med Chem Lett, 2007)
Activity calls are given as the source filed them. The rule behind the calls is not given here.

What was measured:
PANC-1 [1] = test: Increase in p21WAF1/CIP1 gene expression in PANC1 cells after 24 hrs relative to control; type: functional, cell-based; settings: Homo sapiens
PANC-1 [2] = test: Increase in p21WAF1/CIP1 gene expression in PANC1 cells at 0.1 uM after 48 hrs relative to control; type: functional, cell-based; settings: Homo sapiens
PANC-1 [3] = test: Increase in p27kip1 gene expression in PANC1 cells after 24 hrs relative to control; type: functional, cell-based; settings: Homo sapiens
PANC-1 [4] = test: Increase in p27kip1 gene expression in PANC1 cells after 48 hrs relative to control; type: functional, cell-based; settings: Homo sapiens
Histone deacetylase 1 = Histone deacetylase 1 (Homo sapiens, UniProt Q13547); test: Inhibition of human HDAC1
Histone deacetylase 1, sequence (Q13547 whole entry): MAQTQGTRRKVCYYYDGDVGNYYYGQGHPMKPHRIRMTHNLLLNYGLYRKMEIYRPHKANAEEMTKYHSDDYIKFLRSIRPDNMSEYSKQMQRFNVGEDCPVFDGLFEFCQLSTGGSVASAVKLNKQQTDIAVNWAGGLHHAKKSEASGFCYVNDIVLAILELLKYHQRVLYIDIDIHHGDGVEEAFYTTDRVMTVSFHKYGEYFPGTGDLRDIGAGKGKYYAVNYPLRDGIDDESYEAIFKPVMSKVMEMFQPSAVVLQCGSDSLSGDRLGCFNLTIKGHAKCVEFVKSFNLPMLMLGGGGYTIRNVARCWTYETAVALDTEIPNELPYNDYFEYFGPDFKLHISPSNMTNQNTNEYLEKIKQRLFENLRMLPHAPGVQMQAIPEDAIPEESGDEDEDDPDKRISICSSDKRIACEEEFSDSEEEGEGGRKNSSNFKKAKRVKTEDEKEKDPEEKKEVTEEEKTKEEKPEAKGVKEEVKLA

Histone deacetylase 4 = Histone deacetylase 4 (Homo sapiens, UniProt P56524); test: Inhibition of human HDAC4
Histone deacetylase 4, sequence (P56524 whole entry): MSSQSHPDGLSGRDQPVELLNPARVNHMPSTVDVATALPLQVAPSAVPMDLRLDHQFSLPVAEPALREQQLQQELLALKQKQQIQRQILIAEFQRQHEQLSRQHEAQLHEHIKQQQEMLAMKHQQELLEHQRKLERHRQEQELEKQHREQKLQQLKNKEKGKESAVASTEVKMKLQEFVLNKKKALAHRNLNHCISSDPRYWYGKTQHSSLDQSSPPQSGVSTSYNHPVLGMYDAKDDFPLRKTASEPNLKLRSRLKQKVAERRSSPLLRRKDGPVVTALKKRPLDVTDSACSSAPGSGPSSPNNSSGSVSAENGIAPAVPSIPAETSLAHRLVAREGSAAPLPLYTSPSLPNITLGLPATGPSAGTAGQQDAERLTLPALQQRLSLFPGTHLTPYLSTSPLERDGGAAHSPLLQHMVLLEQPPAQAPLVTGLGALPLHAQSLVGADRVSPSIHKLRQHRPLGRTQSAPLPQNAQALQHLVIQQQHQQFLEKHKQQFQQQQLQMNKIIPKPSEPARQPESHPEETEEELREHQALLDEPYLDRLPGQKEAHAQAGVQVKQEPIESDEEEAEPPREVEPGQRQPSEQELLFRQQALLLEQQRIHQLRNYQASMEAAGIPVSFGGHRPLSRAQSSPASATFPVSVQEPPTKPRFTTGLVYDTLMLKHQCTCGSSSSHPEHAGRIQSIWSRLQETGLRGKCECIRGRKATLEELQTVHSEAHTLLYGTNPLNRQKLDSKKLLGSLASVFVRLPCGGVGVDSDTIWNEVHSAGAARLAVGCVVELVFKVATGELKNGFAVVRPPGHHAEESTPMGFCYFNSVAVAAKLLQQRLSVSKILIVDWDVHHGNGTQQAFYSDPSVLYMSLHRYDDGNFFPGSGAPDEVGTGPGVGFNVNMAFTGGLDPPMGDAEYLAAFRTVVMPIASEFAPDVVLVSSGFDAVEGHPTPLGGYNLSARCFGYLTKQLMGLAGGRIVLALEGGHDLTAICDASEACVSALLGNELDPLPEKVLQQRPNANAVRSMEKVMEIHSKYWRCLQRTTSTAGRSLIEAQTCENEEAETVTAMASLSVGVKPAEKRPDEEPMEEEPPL

[5] = biological target: T1, Protein deacetylase HDAC6 (Homo sapiens, UniProt Q9UBN7); test: Inhibition of human HDAC6
T1 sequence (Q9UBN7 whole entry): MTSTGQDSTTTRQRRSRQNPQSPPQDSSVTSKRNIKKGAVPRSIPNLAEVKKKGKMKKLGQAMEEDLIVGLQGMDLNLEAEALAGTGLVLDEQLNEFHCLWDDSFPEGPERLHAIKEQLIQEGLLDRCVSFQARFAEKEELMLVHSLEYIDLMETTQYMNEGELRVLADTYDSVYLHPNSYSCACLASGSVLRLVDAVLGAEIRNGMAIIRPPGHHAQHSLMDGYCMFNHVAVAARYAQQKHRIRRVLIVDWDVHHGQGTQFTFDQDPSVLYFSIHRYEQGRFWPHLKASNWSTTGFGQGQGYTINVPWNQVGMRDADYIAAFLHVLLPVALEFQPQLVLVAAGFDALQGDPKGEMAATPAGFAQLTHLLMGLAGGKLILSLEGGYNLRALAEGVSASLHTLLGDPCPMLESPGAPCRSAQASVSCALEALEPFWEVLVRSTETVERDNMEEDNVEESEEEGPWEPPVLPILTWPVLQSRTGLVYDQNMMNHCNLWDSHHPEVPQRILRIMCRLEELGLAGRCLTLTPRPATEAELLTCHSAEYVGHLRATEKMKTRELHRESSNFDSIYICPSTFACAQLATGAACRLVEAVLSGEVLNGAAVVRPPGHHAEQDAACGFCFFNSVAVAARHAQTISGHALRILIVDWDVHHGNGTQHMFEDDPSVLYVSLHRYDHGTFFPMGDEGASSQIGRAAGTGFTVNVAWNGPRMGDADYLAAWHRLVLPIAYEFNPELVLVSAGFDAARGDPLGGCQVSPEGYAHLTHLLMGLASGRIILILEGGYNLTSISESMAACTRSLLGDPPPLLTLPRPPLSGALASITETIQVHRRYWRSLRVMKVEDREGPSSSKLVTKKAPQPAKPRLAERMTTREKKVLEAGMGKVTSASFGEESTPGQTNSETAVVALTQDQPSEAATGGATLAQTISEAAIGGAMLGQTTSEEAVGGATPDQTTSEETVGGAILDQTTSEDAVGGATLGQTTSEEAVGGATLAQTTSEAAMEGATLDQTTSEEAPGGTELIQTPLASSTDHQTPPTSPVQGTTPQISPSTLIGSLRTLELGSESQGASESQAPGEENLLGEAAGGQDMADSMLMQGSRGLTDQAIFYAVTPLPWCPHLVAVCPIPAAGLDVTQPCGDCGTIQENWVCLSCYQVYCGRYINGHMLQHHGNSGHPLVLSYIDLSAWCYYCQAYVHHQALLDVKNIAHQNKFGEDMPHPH

PANC-1 [6] = test: Antiproliferative activity against human PANC1 cells; type: functional, cell-based
PT-45 = test: Antiproliferative activity against human drug-resistant PT45 cells; type: functional, cell-based
PANC-1 [7] = test: Increase in p21WAF1/CIP1 gene expression in PANC1 cells 1 uM after 48 hrs relative to control; type: functional, cell-based; settings: Homo sapiens

SMILES	IC50 (Histone deacetylase 1) [nM]	IC50 (Histone deacetylase 4) [nM]	IC50 [5] [nM]	IC50 (PANC-1 [6]) [nM]	Activity (PANC-1 [1])	Activity (PANC-1 [2])	Activity (PANC-1 [3])	Activity (PANC-1 [4])	IC50 (PT-45) [nM]	Activity (PANC-1 [7])
O=C(CCCCCCC(=O)Nc1ccccc1)NO	–	–	–	–	Active	Active	inactive	inactive	–	–
O=C(/C=C/c1ccc2c(c1)C(=O)N(Cc1ccc(-c3cccnc3)cc1)C2)NO	92	56	280	35	–	Active	inactive	inactive	200	Active
O=C(/C=C/c1ccc2c(c1)C(=O)N(Cc1ccc(-c3ccccc3)cc1)C2)NO	220	98	750	150	–	–	–	–	300	–

More lines, in order of falling IC50 (Histone deacetylase 1), values ahead:

IC50 (Histone deacetylase 1) [nM]	IC50 (Histone deacetylase 4) [nM]	IC50 [5] [nM]	IC50 (PANC-1 [6]) [nM]	SMILES	Activity (PANC-1 [1])	Activity (PANC-1 [2])	Activity (PANC-1 [3])	Activity (PANC-1 [4])	IC50 (PT-45) [nM]	Activity (PANC-1 [7])
3300	2100	15000	–	O=C(/C=C/c1ccc2c(c1)C(=O)N(Cc1ccc(-c3ccncc3)cc1)C2)NO	–	–	–	–	–	–
250	220	230	–	O=C(/C=C/c1ccc2c(c1)C(=O)N(Cc1ccccc1)C2)NO	–	–	–	–	–	–
230	180	990	–	CC(C)(C)c1ccc(CN2Cc3ccc(/C=C/C(=O)NO)cc3C2=O)cc1	–	–	–	–	–	–
